Legend:
Format in all cases: biochemical
Conditions in all cases: ADP-Glo SIK kinase assay
[1] = target: T1, SIK3 (Homo sapiens, UniProt Q9Y2K2); experiment: ADP-Glo kinase assay, SIK3
T1 construct: purchased SignalChem S12-11G-100
Outline: (§1)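 Enzyme–substrate mix was started with ATP and incubated 120 min at RT. ADP formed was quantified by ADP-Glo: 40 min ATP depletion, then 30 min detection reagent converting ADP to ATP for luciferase luminescence, which rises with kinase activity. Controls: 1% DMSO and 10 μM staurosporine (final).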

[2] = target: T2, SIK2 (Homo sapiens, UniProt Q9H0K1); experiment: ADP-Glo kinase assay, SIK2
T2 construct: purchased ThermoFisher Scientific PV4792
T2 sequence (Q9H0K1 whole entry): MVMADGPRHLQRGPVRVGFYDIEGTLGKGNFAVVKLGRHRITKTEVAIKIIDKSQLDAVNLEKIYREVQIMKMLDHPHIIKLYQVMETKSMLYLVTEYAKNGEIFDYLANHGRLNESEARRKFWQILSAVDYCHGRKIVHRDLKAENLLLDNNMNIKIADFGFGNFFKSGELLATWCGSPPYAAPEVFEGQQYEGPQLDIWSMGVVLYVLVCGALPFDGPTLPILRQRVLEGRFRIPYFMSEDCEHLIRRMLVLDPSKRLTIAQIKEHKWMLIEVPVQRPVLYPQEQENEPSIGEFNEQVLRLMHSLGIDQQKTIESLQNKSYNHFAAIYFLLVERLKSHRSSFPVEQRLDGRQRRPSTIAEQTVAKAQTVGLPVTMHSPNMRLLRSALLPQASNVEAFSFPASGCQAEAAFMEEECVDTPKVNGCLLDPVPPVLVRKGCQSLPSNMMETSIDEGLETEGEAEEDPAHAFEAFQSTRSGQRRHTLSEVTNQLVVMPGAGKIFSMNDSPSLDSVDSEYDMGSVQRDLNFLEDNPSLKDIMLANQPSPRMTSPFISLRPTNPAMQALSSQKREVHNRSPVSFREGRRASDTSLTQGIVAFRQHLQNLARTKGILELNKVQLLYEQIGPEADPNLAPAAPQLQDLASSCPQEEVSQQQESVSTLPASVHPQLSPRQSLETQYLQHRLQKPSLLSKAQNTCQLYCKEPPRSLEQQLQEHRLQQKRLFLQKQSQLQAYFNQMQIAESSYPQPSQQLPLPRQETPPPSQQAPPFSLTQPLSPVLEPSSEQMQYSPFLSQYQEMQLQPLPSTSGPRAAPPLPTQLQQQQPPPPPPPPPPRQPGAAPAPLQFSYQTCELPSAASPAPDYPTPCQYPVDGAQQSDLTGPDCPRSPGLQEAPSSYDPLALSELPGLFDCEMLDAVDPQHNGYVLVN
Outline: as §1

[3] = target: T3, SIK1 (Homo sapiens, UniProt P57059); experiment: ADP-Glo kinase assay, SIK1
T3 construct: purchased Carna Biosciences 02-131
T3 sequence (P57059 whole entry): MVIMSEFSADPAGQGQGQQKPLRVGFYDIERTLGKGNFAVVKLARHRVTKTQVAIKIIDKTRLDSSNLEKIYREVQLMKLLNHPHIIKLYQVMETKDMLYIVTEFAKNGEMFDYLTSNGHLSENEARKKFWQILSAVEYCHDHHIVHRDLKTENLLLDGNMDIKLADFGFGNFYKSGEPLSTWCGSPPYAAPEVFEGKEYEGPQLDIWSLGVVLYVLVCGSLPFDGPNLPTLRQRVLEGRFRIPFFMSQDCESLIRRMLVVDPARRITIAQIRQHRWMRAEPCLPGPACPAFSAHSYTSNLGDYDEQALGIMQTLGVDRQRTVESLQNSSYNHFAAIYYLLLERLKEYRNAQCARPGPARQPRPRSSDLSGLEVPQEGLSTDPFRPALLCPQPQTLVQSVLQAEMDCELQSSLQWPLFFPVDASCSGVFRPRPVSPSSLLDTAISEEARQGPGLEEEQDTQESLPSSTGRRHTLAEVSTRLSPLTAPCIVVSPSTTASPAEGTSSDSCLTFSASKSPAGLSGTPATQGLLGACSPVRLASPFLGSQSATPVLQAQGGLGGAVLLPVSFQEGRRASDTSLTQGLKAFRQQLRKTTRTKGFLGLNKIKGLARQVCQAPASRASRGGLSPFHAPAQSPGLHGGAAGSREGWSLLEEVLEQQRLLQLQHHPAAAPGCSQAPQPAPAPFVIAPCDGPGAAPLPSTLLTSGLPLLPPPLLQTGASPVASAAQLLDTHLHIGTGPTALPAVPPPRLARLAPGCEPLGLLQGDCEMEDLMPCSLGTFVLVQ
Outline: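 Wells with 1% DMSO or 10 μM staurosporine (final) define the control window. The kinase reaction with substrate and ATP runs 120 min at RT, followed by ADP-Glo detection: ATP depletion (40 min) and ADP-derived luminescence (30 min).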

T1 sequence (Q9Y2K2 whole entry): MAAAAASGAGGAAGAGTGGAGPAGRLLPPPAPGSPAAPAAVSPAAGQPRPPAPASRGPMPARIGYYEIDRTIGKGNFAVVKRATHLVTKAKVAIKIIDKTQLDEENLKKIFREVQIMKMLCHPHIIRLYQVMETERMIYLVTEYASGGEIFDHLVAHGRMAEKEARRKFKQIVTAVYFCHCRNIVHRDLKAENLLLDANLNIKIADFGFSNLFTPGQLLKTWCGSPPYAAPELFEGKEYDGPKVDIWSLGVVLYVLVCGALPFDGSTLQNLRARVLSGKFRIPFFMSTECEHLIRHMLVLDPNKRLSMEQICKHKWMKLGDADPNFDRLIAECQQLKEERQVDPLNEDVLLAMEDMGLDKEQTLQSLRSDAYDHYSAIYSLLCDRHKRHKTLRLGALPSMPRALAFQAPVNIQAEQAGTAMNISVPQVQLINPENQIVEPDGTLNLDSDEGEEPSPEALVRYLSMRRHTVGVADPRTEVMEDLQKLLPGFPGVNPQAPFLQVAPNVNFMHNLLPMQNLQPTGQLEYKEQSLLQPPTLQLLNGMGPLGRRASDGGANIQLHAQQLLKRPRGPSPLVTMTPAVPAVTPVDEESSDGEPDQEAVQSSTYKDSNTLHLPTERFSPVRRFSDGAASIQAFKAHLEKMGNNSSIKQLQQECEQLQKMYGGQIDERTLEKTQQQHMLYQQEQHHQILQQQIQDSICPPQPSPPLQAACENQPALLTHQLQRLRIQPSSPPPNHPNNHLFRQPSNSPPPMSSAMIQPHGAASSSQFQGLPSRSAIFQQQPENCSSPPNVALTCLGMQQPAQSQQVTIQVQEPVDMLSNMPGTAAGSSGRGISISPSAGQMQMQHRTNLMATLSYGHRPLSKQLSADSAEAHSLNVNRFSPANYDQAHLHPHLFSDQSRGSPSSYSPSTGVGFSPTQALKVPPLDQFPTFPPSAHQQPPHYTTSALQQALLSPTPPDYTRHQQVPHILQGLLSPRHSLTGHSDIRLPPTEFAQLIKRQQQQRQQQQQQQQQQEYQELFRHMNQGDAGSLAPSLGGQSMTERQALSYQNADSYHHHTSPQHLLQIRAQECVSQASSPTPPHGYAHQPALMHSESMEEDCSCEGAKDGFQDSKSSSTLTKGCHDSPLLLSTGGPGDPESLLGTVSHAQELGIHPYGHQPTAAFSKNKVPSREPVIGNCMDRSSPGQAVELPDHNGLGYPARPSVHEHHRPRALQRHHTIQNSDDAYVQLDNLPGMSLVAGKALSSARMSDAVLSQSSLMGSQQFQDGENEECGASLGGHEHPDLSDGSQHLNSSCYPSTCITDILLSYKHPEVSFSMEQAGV

Which results are given for `COc1cc(-c2cnc3cc(OCCN4CCC(F)(F)C4)ccn23)cc(OC(F)F)c1C(=O)NC1CC1` [compound 180, N-cyclopropyl-2-(difluoromethoxy)-4-[7-[2-(3,3-difluoropyrrolidin-1-yl)ethoxy]imidazo[1,2-a]pyridin-3-yl]-6-methoxy-benzamide]?
IC50 [1]: 0.01 to 10 nM; IC50 [2]: 0.01 to 10 nM; IC50 [3]: 10 to 100 nM

For `COc1cc(-c2cnc3cc(OCC4CC(F)(F)C4)ccn23)cc(OC(F)F)c1C(=O)NC1CC1` [compound 52, N-cyclopropyl-4-[7-[(3,3-difluorocyclobutyl)methoxy]imidazo[1,2-a]pyridin-3-yl]-2-(difluoromethoxy)-6-methoxy-benzamide], which IC50 [1] is on record?
Its IC50 is 0.01 to 10 nM.

What about the IC50 [2] of the same molecule?
The IC50 was 0.01 to 10 nM.

What about the IC50 [3] of the same molecule?
Its IC50 is 0.01 to 10 nM.

`COc1cc(-c2cnc3cc(OC[C@@H]4CCN(C5COC5)C4)ccn23)cc(OC(F)F)c1C(=O)NC1CC1` [compound 336, N-cyclopropyl-2-(difluoromethoxy)-6-methoxy-4-[7-[[(3R)-1-(oxetan-3-yl)pyrrolidin-3-yl]methoxy]imidazo[1,2-a]pyridin-3-yl]benzamide] was tested. Which IC50 [1] did it give?
The IC50 was 0.01 to 10 nM.

And the IC50 [2]?
Its IC50 is 0.01 to 10 nM.

And the IC50 [3]?
The IC50 was 10 to 100 nM.

How did the IC50 [1] turn out when `COc1cc(-c2cnc3cc(OCC4(C)CNC4)ccn23)cc(OC(F)F)c1C(=O)NC1CC1` [compound 208, N-cyclopropyl-2-(difluoromethoxy)-6-methoxy-4-[7-[(3-methylazetidin-3-yl)methoxy]imidazo[1,2-a]pyridin-3-yl]benzamide] was run?
Its IC50 is 0.01 to 10 nM.

What about the IC50 [2] of the same molecule?
The IC50 was 0.01 to 10 nM.

And the IC50 [3]?
The IC50 was 10 to 100 nM.

Which results are given for `COc1cc(-c2cnc3cc(OCC(N)C4CCOCC4)ccn23)cc(OC(F)F)c1C(=O)NC1CC1` (stereo not drawn) [compound 135, 4-[7-(2-amino-2-tetrahydropyran-4-yl-ethoxy)imidazo[1,2-a]pyridin-3-yl]-N-cyclopropyl-2-(difluoromethoxy)-6-methoxy-benzamide]?
IC50 [1]: 0.01 to 10 nM; IC50 [2]: 0.01 to 10 nM; IC50 [3]: 10 to 100 nM

`COc1cc(-c2cnc3cc(OC[C@@H]4CCCN(C5COC5)C4)ccn23)cc(OC(F)F)c1C(=O)NC1CC1` [compound 339, N-cyclopropyl-2-(difluoromethoxy)-6-methoxy-4-[7-[[(3R)-1-(oxetan-3-yl)-3-piperidyl]methoxy]imidazo[1,2-a]pyridin-3-yl]benzamide] was tested. Which IC50 [1] did it give?
Its IC50 is 0.01 to 10 nM.

What about the IC50 [2] of the same molecule?
Its IC50 is 0.01 to 10 nM.

And the IC50 [3]?
Its IC50 is 10 to 100 nM.

With `COc1cc(-c2cnc3cc(OCC4(C)CN(C)C4)ccn23)cc2c1C(=O)N(CC(F)(F)F)CC2` [Cpd 253, 6-[7-[(1,3-dimethylazetidin-3-yl)methoxy]imidazo[1,2-a]pyridin-3-yl]-8-methoxy-2-(2,2,2-trifluoroethyl)-3,4-dihydroisoquinolin-1-one] as the molecule, how does the IC50 [1] read?
The IC50 was 0.01 to 10 nM.

What about the IC50 [2] of the same molecule?
Its IC50 is 10 to 100 nM.

What about the IC50 [3] of the same molecule?
Its IC50 is greater than 500 nM.

How did the IC50 [1] turn out when `COc1cc(-c2cnc3cc(OCC4CN(CCO)C4)ccn23)cc(OC(F)F)c1C(=O)NC1CC1` [Cpd 343, N-cyclopropyl-2-(difluoromethoxy)-4-[7-[[1-(2-hydroxyethyl)azetidin-3-yl]methoxy]imidazo[1,2-a]pyridin-3-yl]-6-methoxy-benzamide] was run?
The IC50 was 0.01 to 10 nM.

And the IC50 [2]?
Its IC50 is 0.01 to 10 nM.

What about the IC50 [3] of the same molecule?
The IC50 was 10 to 100 nM.

How did the IC50 [1] turn out when `COc1cc(-c2cnc3cc(OCCN4CCOC(C)C4)ccn23)cc(OC(F)F)c1C(=O)NC1CC1` (stereo not drawn) [compound 214, N-cyclopropyl-2-(difluoromethoxy)-6-methoxy-4-[7-[2-(2-methylmorpholin-4-yl)ethoxy]imidazo[1,2-a]pyridin-3-yl] benzamide] was run?
The IC50 was 0.01 to 10 nM.

What about the IC50 [2] of the same molecule?
The IC50 was 0.01 to 10 nM.

And the IC50 [3]?
Its IC50 is 10 to 100 nM.

With `COc1cc(-c2cnc3cc(OCC(F)F)ccn23)cc(OC(F)F)c1C(=O)NC1CC1` [compound 90, N-cyclopropyl-4-[7-(2,2-difluoroethoxy)imidazo [1,2-a]pyridin-3-yl]-2-(difluoromethoxy)-6-methoxy-benzamide] as the molecule, how does the IC50 [1] read?
Its IC50 is 0.01 to 10 nM.

And the IC50 [2]?
The IC50 was 0.01 to 10 nM.

And the IC50 [3]?
Its IC50 is 10 to 100 nM.

For `COc1cc(-c2cnc3cc(OC[C@H]4CCN(CCO)C4)ccn23)cc(OC(F)F)c1C(=O)NC1CC1` [Cpd 341, N-cyclopropyl-2-(difluoromethoxy)-4-[7-[[(3S)-1-(2-hydroxyethyl)pyrrolidin-3-yl]methoxy]imidazo[1,2-a]pyridin-3-yl]-6-methoxy-benzamide], which IC50 [1] is on record?
The IC50 was 0.01 to 10 nM.

And the IC50 [2]?
The IC50 was 0.01 to 10 nM.

And the IC50 [3]?
Its IC50 is 10 to 100 nM.

How did the IC50 [1] turn out when `COc1cc(-c2cnc3cc(OC4CN(C)C4)ccn23)cc(OC(F)F)c1C(=O)NC1CC1` [compound 29, N-cyclopropyl-2-(difluoromethoxy)-6-methoxy-4-[7-(1-methylazetidin-3-yl)oxyimidazo[1,2-a]pyridin-3-yl]benzamide] was run?
The IC50 was 10 to 100 nM.

And the IC50 [2]?
The IC50 was 10 to 100 nM.

What about the IC50 [3] of the same molecule?
The IC50 was 100 to 500 nM.

How did the IC50 [1] turn out when `COc1cc(-c2cnc3cc(OCC(=O)O)ccn23)cc(OC(F)F)c1C(=O)NC1CC1` [Cpd 396, 2-[3-[4-(cyclopropylcarbamoyl)-3-(difluoromethoxy)-5-methoxy-phenyl]imidazo[1,2-a]pyridin-7-yl]oxyacetic acid] was run?
Its IC50 is 10 to 100 nM.

What about the IC50 [2] of the same molecule?
The IC50 was 100 to 500 nM.

And the IC50 [3]?
The IC50 was 100 to 500 nM.

What does the source list for `CCn1ccnc1COc1ccn2c(-c3cc(OC)c(C(=O)NC4CC4)c(OC(F)F)c3)cnc2c1` [Cpd 173, N-cyclopropyl-2-(difluoromethoxy)-4-[7-[(1-ethylimidazol-2-yl)methoxy]imidazo[1,2-a]pyridin-3-yl]-6-methoxy-benzamide]?
IC50 [1]: 0.01 to 10 nM; IC50 [2]: 0.01 to 10 nM; IC50 [3]: 100 to 500 nM

Which results are given for `COc1cc(-c2cnc3cc(OCc4ccncc4)ccn23)cc(OC(F)F)c1C(=O)NC1CC1` [compound 103, N-cyclopropyl-2-(difluoromethoxy)-6-methoxy-4-[7-(4-pyridylmethoxy)imidazo [1,2-a]pyridin-3-yl]benzamide]?
IC50 [1]: 0.01 to 10 nM; IC50 [2]: 0.01 to 10 nM; IC50 [3]: 10 to 100 nM

Which results are given for `COc1cc(-c2cnc3cc(OC4CCC4)ccn23)cc(OC(F)F)c1C(=O)NC1CC1` [compound 151, 4-[7-(cyclobutoxy)imidazo[1,2-a]pyridin-3-yl]-N-cyclopropyl-2-(difluoromethoxy)-6-methoxy-benzamide]?
IC50 [1]: 0.01 to 10 nM; IC50 [2]: 0.01 to 10 nM; IC50 [3]: 10 to 100 nM

Which results are given for `COc1cc(-c2cnc3cc(OCC(C)N(C)C)ccn23)cc(OC(F)F)c1C(=O)NC1CC1` (stereo not drawn) [compound 202, N-cyclopropyl-2-(difluoromethoxy)-4-[7-[2-(dimethylamino)propoxy]imidazo[1,2-a]pyridin-3-yl]-6-methoxy-benzamide]?
IC50 [1]: 0.01 to 10 nM; IC50 [2]: 0.01 to 10 nM; IC50 [3]: 100 to 500 nM

What does the source list for `COc1cc(-c2cnc3cc(OCC4CNC(=O)C4)ccn23)cc(OC(F)F)c1C(=O)NC1CC1` (stereo not drawn) [compound 102, N-cyclopropyl-2-(difluoromethoxy)-6-methoxy-4-[7-[(5-oxopyrrolidin-3-yl)methoxy]imidazo[1,2-a]pyridin-3-yl]benzamide]?
IC50 [1]: 0.01 to 10 nM; IC50 [2]: 0.01 to 10 nM; IC50 [3]: 10 to 100 nM

How did the IC50 [1] turn out when `COc1cc(-c2cnc3cc(OCC4CCOC4)ccn23)cc(OC(F)F)c1C(=O)NC1CC1` (stereo not drawn) [compound 92, N-cyclopropyl-2-(difluoromethoxy)-6-methoxy-4-[7-(tetrahydrofuran-3-ylmethoxy)imidazo[1,2-a]pyridin-3-yl]benzamide] was run?
Its IC50 is 0.01 to 10 nM.

What about the IC50 [2] of the same molecule?
Its IC50 is 0.01 to 10 nM.

What about the IC50 [3] of the same molecule?
The IC50 was 10 to 100 nM.

Which results are given for `Cc1cc(-c2cnc3cc(OCCN4CCOCC4)ccn23)cc(OC(F)F)c1C(=O)NC1CC1` [compound 241, N-cyclopropyl-2-(difluoromethoxy)-6-methyl-4-[7-(2-morpholinoethoxy)imidazo[1,2-a]pyridin-3-yl]benzamide]?
IC50 [1]: 0.01 to 10 nM; IC50 [2]: 10 to 100 nM; IC50 [3]: 100 to 500 nM

For `COc1cc(-c2cnc3cc(OCCN(C)c4ccnnc4)ccn23)cc(OC(F)F)c1C(=O)NC1CC1` [compound 240, N-cyclopropyl-2-(difluoromethoxy)-6-methoxy-4-[7-[2-[methyl(pyridazin-4-yl)amino]ethoxy]imidazo [1,2-a]pyridin-3-yl]benzamide], which IC50 [1] is on record?
Its IC50 is 0.01 to 10 nM.

And the IC50 [2]?
Its IC50 is 0.01 to 10 nM.

What about the IC50 [3] of the same molecule?
Its IC50 is 0.01 to 10 nM.

For `COc1cc(-c2cnc3cc(OCC4CCN4C(=O)OC(C)(C)C)ccn23)cc(OC(F)F)c1C(=O)NC1CC1` (stereo not drawn) [compound 87, tert-butyl 2-[[3-[4-(cyclopropylcarbamoyl)-3-(difluoromethoxy)-5-methoxy-phenyl]imidazo[1,2-a]pyridin-7-yl]oxymethyl]azetidine-1-carboxylate], which IC50 [1] is on record?
The IC50 was 0.01 to 10 nM.

What about the IC50 [2] of the same molecule?
The IC50 was 0.01 to 10 nM.

And the IC50 [3]?
Its IC50 is 10 to 100 nM.

For `COc1cc(-c2cnc3cc(OCC4(N)CCCCC4)ccn23)cc(OC(F)F)c1C(=O)NC1CC1` [compound 169, 4-[7-[(1-aminocyclohexyl)methoxy]imidazo[1,2-a]pyridin-3-yl]-N-cyclopropyl-2-(difluoromethoxy)-6-methoxy-benzamide], which IC50 [1] is on record?
The IC50 was 0.01 to 10 nM.

What about the IC50 [2] of the same molecule?
The IC50 was 10 to 100 nM.

What about the IC50 [3] of the same molecule?
The IC50 was 100 to 500 nM.

What does the source list for `CN(C)CCOc1ccn2c(-c3cc(F)c(C(=O)NC4CC4)c(OC(F)F)c3)cnc2c1` [compound 146, N-cyclopropyl-2-(difluoromethoxy)-4-[7-[2-(dimethylamino)ethoxy]imidazo[1,2-a]pyridin-3-yl]-6-fluoro-benzamide]?
IC50 [1]: 10 to 100 nM; IC50 [2]: 10 to 100 nM; IC50 [3]: > 500 nM

Which IC50 [1] does the source give for `COc1cc(-c2cnc3cc(OC4COC4)ccn23)cc(OC(F)F)c1C(=O)NC1CC1` [compound 152, N-cyclopropyl-2-(difluoromethoxy)-6-methoxy-4-[7-(oxetan-3-yloxy)imidazo[1,2-a]pyridin-3-yl]benzamide] here?
The IC50 was 0.01 to 10 nM.

What about the IC50 [2] of the same molecule?
The IC50 was 10 to 100 nM.

And the IC50 [3]?
Its IC50 is 10 to 100 nM.

Which IC50 [1] does the source give for `COc1cc(-c2cnc3cc(OCC4CCN(C)CC4)ccn23)cc(OC(F)F)c1C(=O)NC1CC1` [compound 25, N-cyclopropyl-2-(difluoromethoxy)-6-methoxy-4-[7-[(1-methyl-4-piperidyl)methoxy]imidazo[1,2-a]pyridin-3-yl]benzamide] here?
Its IC50 is 0.01 to 10 nM.

What about the IC50 [2] of the same molecule?
Its IC50 is 0.01 to 10 nM.

What about the IC50 [3] of the same molecule?
The IC50 was 0.01 to 10 nM.

Source: patent US12264156B2, “Compounds and pharmaceutical compositions thereof for the treatment of diseases” (GALAPAGOS NV, priority 2018, dated 2025)
